Test in all cases: NCI tumour cell line growth inhibition, 48 h
Assay [1] relates to A498.
Assay [2] relates to A549.
For assay [3], the system named is CAKI-1.
In assay [4] the test system is CCRF-CEM.
For assay [5], the system named is COLO 205.
For assay [6], the system named is HCC 2998.
In assay [7] the test system is HCT-15.
Assay [8] deals with IGROV-1.
Assay [9] has as its system Malme-3M.
Assay [10] concerns NCI/ADR-RES.
Assay [11] concerns OVCAR-4.
Assay [12] has as its system OVCAR-5.
For assay [13], the system named is OVCAR-8.
In assay [14] the test system is PC-3.
In assay [15] the test system is RXF 393.
Assay [16] relates to SF-268.
Assay [17] deals with SR.
Assay [18] relates to TK-10.
In assay [19] the test system is UACC-257.
In assay [20] the test system is ACHN.

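Dose response: 5 concentrations. Exposure: 48 h. Format: 96-well plates. Endpoint: linear interpolation; highest concentration if not reached. GI50 = concentration required for 50% inhibition of growth.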 Calls of active or inactive are those of the source. No stated cut-off is given here; in the data, active = GI50 up to about 1.1 µM and inactive = higher.

Turning to `O=[N+]([O-])c1cccnc1-n1cnc2ccccc21`, the GI50 in [1], in [2], in [3], in assay [4], in assay [5] and in assay [6] was > 100 µM (inactive) each time. Besides, the GI50 in [7] is over 100 µM; in [8], > 100 µM (inactive); in assay [9], > 100 µM (inactive); in [10], > 100 µM (inactive); in assay [11], > 100 µM (inactive); in [12], > 100 µM (inactive). Besides, the GI50 in [13], in assay [14], in assay [15], in assay [16], in assay [17] and in assay [18] was > 100 µM (inactive) each time. Further, in [19], the GI50 was > 100 µM (inactive).

Take `O=C(Cn1c(C(=O)c2ccccc2)nc2ccccc21)c1ccccc1`: the GI50 in assay [1] is > 100 µM (inactive); in assay [2], > 96.4 µM (inactive); in assay [20] it was > 100 µM (inactive); in assay [3], > 100 µM (inactive); in [4] it was > 100 µM (inactive); in assay [5] it was > 100 µM (inactive). Moreover, the GI50 was > 100 µM (inactive) in assay [6]; over 100 µM in assay [7]; > 31.6 µM (inactive) in [8]; > 96.2 µM (inactive) in assay [9]; > 100 µM (inactive) in assay [10]; 96.8 µM (inactive) in [11]. Also, the GI50 in assay [12] was > 100 µM (inactive); in [13] it was > 100 µM (inactive); in [14] it was > 72.4 µM (inactive); in assay [15] it was > 100 µM (inactive); in assay [16], > 100 µM (inactive); in assay [17] it was > 100 µM (inactive). Further, the GI50 in [18] and in assay [19] was > 100 µM (inactive) throughout.

Take `COc1ccc(OC)c2nc3c(C(=O)NCCN(C)C)cccc3nc12`: the GI50 in assay [1] was 13.9 µM (inactive); in assay [2], 3.37 µM (inactive); in assay [20], 1.98 µM (inactive); in assay [3], 3.22 µM (inactive); in assay [4], 2.29 µM (inactive); in assay [5], 2.37 µM (inactive). Also, the GI50 in [6] was 5.77 µM (inactive); in assay [7] it was 4.74 µM; in assay [8], 4.59 µM (inactive); in assay [9] it was 8.65 µM (inactive); in assay [10], 5.25 µM (inactive); in assay [11] it was 3.09 µM (inactive). For the same compound, the GI50 in [12] is 10.3 µM (inactive); in assay [13] it was 2.54 µM (inactive); in [14], 4.04 µM (inactive); in assay [15], 5.85 µM (inactive); in assay [16] it was 3.94 µM (inactive); in [17], 2.17 µM (inactive). Also, the GI50 in assay [18] is 4.63 µM (inactive); in assay [19], 3.88 µM (inactive).

With `O=C(CC(=O)Nc1ccccc1)NNC(c1cc(/N=N/c2ccc(Br)cc2)ccc1O)P(O)O` (configuration not stated), the GI50 in [1] was 2.43 µM (inactive); in assay [2], 6.41 µM (inactive); in [20], 2.12 µM (inactive); in assay [3], 3.02 µM (inactive); in [4], 0.322 µM (active); in assay [5], 4.49 µM (inactive). In addition, the GI50 in assay [6] was 5.46 µM (inactive); in assay [7], 0.425 µM; in assay [8], 9.62 µM (inactive); in assay [9], 2.38 µM (inactive); in assay [10] it was 1.06 µM (active); in assay [11], 1.85 µM (inactive). Besides, the GI50 in assay [12] was 6.92 µM (inactive); in [13], 0.759 µM (active); in assay [14], 0.975 µM (active); in assay [15], > 10 µM (inactive); in assay [16] it was 0.964 µM (active); in assay [17], 0.494 µM (active). Moreover, the values for the GI50 in [18] and in assay [19] were 0.851 µM (active) and 4.89 µM (inactive), respectively.

As for `O=c1c(F)cn(Cc2c(Cl)cccc2Cl)c(=O)n1Cc1c(Cl)cccc1Cl`, the GI50 was > 31.6 µM (inactive) in assay [1]; > 31.6 µM (inactive) in assay [2]; > 31.6 µM (inactive) in [20]; > 21.5 µM (inactive) in assay [3]; 27 µM (inactive) in assay [4]; 19.9 µM (inactive) in [5]. In addition, the GI50 in assay [6] was > 31.6 µM (inactive); in assay [7], over 31.6 µM; in [8], > 31.6 µM (inactive); in [9], > 31.6 µM (inactive); in assay [10], > 31.6 µM (inactive); in assay [11], 17.1 µM (inactive). Besides, the GI50 is > 31.6 µM (inactive) in assay [12]; > 31.6 µM (inactive) in assay [13]; 17.3 µM (inactive) in [14]; 19.7 µM (inactive) in [15]; > 31.6 µM (inactive) in [16]; 19.4 µM (inactive) in assay [17]. Also, the GI50 in assay [18] and in assay [19] was > 31.6 µM (inactive) in each case.

Consider `O=C(Cc1ccc(Cl)c(Cl)c1)NCC1(N2CCCCC2)CCCCC1`, for which the GI50 is 60.7 µM (inactive) in [1]; 41.4 µM (inactive) in assay [2]; > 100 µM (inactive) in [20]; > 100 µM (inactive) in assay [3]; 51.3 µM (inactive) in assay [4]; 17 µM (inactive) in assay [6]. The GI50 was 38.7 µM in assay [7]; > 100 µM (inactive) in [8]; 21.3 µM (inactive) in assay [9]; 93.5 µM (inactive) in assay [10]; 64 µM (inactive) in assay [11]; 47.1 µM (inactive) in assay [12]. Moreover, the GI50 is 97.3 µM (inactive) in assay [13]; 40.1 µM (inactive) in [14]; 21.6 µM (inactive) in assay [15]; 85.3 µM (inactive) in [16]; 35.5 µM (inactive) in assay [17]; 28.8 µM (inactive) in assay [18]. Besides, the GI50 in assay [19] is 17.8 µM (inactive).

As to `C1CSC2=C(S1)SC1=C(S2)SC(=C2SC3=C(SC4=C(SCCS4)S3)S2)S1`, the GI50 in assay [1], in assay [2], in assay [20], in assay [3], in assay [4] and in assay [5] was > 100 µM (inactive) in each case. In addition, the GI50 was > 100 µM (inactive) in [6]; over 100 µM in assay [7]; > 100 µM (inactive) in assay [8]; > 100 µM (inactive) in [9]; > 100 µM (inactive) in assay [10]; > 100 µM (inactive) in assay [11]. The GI50 is > 100 µM (inactive) in [12]; > 100 µM (inactive) in [13]; > 100 µM (inactive) in assay [14]; > 100 µM (inactive) in assay [15]; > 100 µM (inactive) in [16]; 87.7 µM (inactive) in assay [17]. For the same compound, the GI50 in [18] and in [19] was > 100 µM (inactive) each time.

For the compound `NCCCCCCn1c(-c2ccc(Br)cc2)cs/c1=N\c1ccccc1`, the GI50 in [1] is 17.9 µM (inactive); in assay [2], 12.5 µM (inactive); in [20], 14.6 µM (inactive); in assay [3], 14.6 µM (inactive); in [4] it was 6.9 µM (inactive); in [5], 1.79 µM (inactive). Also, the GI50 is 3.75 µM (inactive) in assay [6]; 7.74 µM in assay [7]; 9.35 µM (inactive) in assay [9]; 12.2 µM (inactive) in assay [10]; 12.7 µM (inactive) in assay [11]; 12.2 µM (inactive) in [12]. The GI50 in [13] was 11.9 µM (inactive); in assay [14], 5.86 µM (inactive); in assay [15] it was 10.9 µM (inactive); in [16], 13.9 µM (inactive); in [17] it was 3.51 µM (inactive); in [18] it was 13.6 µM (inactive). Moreover, in [19], the GI50 is 15.2 µM (inactive).

Regarding `Cc1cc(N(CCC#N)CCC#N)ccc1/C=C(\NC(=O)/C=C/c1ccccc1)C(=O)NN`, the GI50 is > 100 µM (inactive) in [1]; > 100 µM (inactive) in [2]; > 80.9 µM (inactive) in assay [20]; > 100 µM (inactive) in assay [3]; > 100 µM (inactive) in assay [4]; > 100 µM (inactive) in assay [5]. In addition, the GI50 in [6] is > 100 µM (inactive); in assay [7], over 100 µM; in [8] it was > 75.3 µM (inactive); in assay [9], > 100 µM (inactive); in assay [10], > 100 µM (inactive); in [11], > 100 µM (inactive). Besides, the GI50 in assay [12] was > 100 µM (inactive); in [13] it was > 54.1 µM (inactive); in [14], > 100 µM (inactive); in [15], > 57.3 µM (inactive); in assay [16] it was > 53.2 µM (inactive); in assay [17], > 100 µM (inactive). Moreover, the GI50 was > 51.3 µM (inactive) in assay [18] and > 100 µM (inactive) in [19].

Consider `CCOC(=O)C1C(=O)CC(O)(OCC)C(C(=O)OCC)C1c1ccc(OC)cc1` (configuration not stated), for which the GI50 in assay [1], in assay [2], in assay [20], in [3], in [4] and in assay [5] was > 100 µM (inactive) each time. For the same compound, the GI50 in assay [6] was > 100 µM (inactive); in assay [7], over 100 µM; in [8], > 100 µM (inactive); in assay [9] it was > 100 µM (inactive); in assay [10] it was > 100 µM (inactive); in [11], > 100 µM (inactive). Besides, the GI50 in assay [12], in [13], in assay [14], in assay [15], in assay [16] and in assay [17] was > 100 µM (inactive) each time. Besides, the GI50 in assay [18] and in assay [19] was > 100 µM (inactive) each time.

Values taken from ChEMBL document CHEMBL1201862, “PubChem BioAssay data set” (2004).
